What all share (assay type): in vivo, mouse
The subject of assay [1] is genes associated with T cell exhaustion; proangiogenic genes. The assay is described as follows: Real time quantitative PCR of gene expression in Renca tumors. The following applies: relative to placebo; FIG. 6K. On the procedure:
(§1) Mouse studies were approved by the Institutional Animal Care and Use Committee of the Texas Tech University Health Sciences Center. Eight to twelve weeks old BALB/c, C3ar1, and C5ar1 knockout mice from the Jackson Laboratory were injected s.c. with 1×10^6 Renca cells (ATCC® CRL2947™). When tumors reached ˜5 mm in diameter mice were assigned to treatment cohorts and treated with, C3aR1 inhibitor SB 290157 (Sigma-Aldrich, 10 mg/kg i.p. twice a day), C5aR1 inhibitor PMX53 [17] (1 mg/kg, i.p. every other day), or PD-1 antibody (RMP1-14, BE-0146, Bio X Cell, 250 μg per mouse i.p. every 4 days), or RaIgG2a isotype control (BE-0089, Bio X Cell, 250 μg i.p. every 4 days), as previously described. CD8^+ T cells were depleted by intraperitoneal (i.p.) injection of 200 μg of CD8a-neutralizing antibody (2.43, Bio X cell, NH) per mouse, each day, for three consecutive days, prior to injecting tumor cells. […] BALB/c control mice were treated in the same manner with rat IgG2b (LTF-2, Bio X cell).
RNA was extracted from frozen tissue using RNeasy plus mini kit (Qiagen) and cDNA was generated using High-Capacity RNA-to-cDNA™ kit (Applied Biosystems). […] Relative expression was calculated using the 2^−ΔΔCt method and RT2 profiler PCR Array Data Analysis (SAB Biosciences) and normalized to GAPDH.

The subject of another assay is Renca cells. Nature of the assay: Tumor growth in anti-PD-1-recalcitrant Renca model of RCC. Particulars: BALB/c mice, s.c. Renca tumors; vs placebo (PBS) or isotype IgG; FIG. 6A, 6C. As to the method:
as §1
To test in vivo the role of complement proteins, the inventors used RCC-Renca (ATCC® CRL-2947™), a murine RCC model that while differing from human RCC, has been extensively evaluated in immunotherapy studies and is known to be recalcitrant to ICI [34], and therefore, potentially resembles ICI-resistant RCC. […]

The subject of assay [2] is CD8^+ T cells in tumors (TIL). Nature of the assay: Flow cytometry of CD8+ T cells (TIL) and IFN-γ expressing TIL in Renca tumors. As to the method:
Mouse studies were approved by the Institutional Animal Care and Use Committee of the Texas Tech University Health Sciences Center. Eight to twelve weeks old BALB/c, C3ar1, and C5ar1 knockout mice from the Jackson Laboratory were injected s.c. with 1×10^6 Renca cells (ATCC® CRL2947™). When tumors reached ˜5 mm in diameter mice were assigned to treatment cohorts and treated with, C3aR1 inhibitor SB 290157 (Sigma-Aldrich, 10 mg/kg i.p. twice a day), C5aR1 inhibitor PMX53 [17] (1 mg/kg, i.p. every other day), or PD-1 antibody (RMP1-14, BE-0146, Bio X Cell, 250 μg per mouse i.p. every 4 days), or RaIgG2a isotype control (BE-0089, Bio X Cell, 250 μg i.p. every 4 days), as previously described. […]
Cells from tumors were pre-incubated with CD16/32 antibody (Fc block; 2.4G2; BD Pharmingen) and stained with fluorochrome-conjugated antibodies from Biolegend: BV605-CD45 (30-F11), AF700-CD3 (17A2), PerCP/Cy5.5-CD4 (GK1.5), and PE/Cy7-CD8α (53-6.7) as recommended by the manufacturer. To quantify IFN-γ expression, cells were stained with surface markers and permeabilized with Cytofix/Cytoperm (554714, BD Biosciences), and washed with 1× Perm/Wash buffer (554714, BD Biosciences) followed by incubation with PE-IFN-γ (XMG1.2, Biolegend). […] Data were acquired on BD Fortessa and analyzed with FlowJo software (Tree Star).

These results are taken from US20230332245A1, “Complement as Prognostic and Predictive Biomarker and Potential Therapeutic Target in Renal Cell Carcinoma” (Texas Tech University System, priority 2020, published 2023).

As for `NC(N)=NCCC[C@H](NC(=O)COCC(c1ccccc1)c1ccccc1)C(=O)O` [SB290157], the “expression of genes associated with T cell exhaustion (Pdcd1, Ctla4, Btla, Fas, Stat3) in tumors” value in assay [1] is “Btla and Fas were upregulated”. Further, the “tumor growth (tumor volumes)” value in the assay with Renca cells was “reduced tumor growth”. In addition, in assay [2] (FACS after CD3/CD28 restimulation, FIG. 6G-6J), the “TIL function: production of IFN-γ upon ex-vivo restimulation” value is given as “highest production of IFN-γ”.
Consider PMX53, for which the “expression of genes associated with T cell exhaustion (Pdcd1, Ctla4, Btla, Fas, Stat3) in tumors” value in assay [1] was “reduction in the expression”. Moreover, the “tumor growth (tumor volumes)” value in the assay with Renca cells was “reduced tumor growth”. In addition, the “recruitment of CD8+ T cells to tumors (TIL)” value in assay [2] (FACS, FIG. 6D, 6F) is recorded as “influx CD8^+ T cells to tumors”.
